{
  "source": "patent EP0038567A1",
  "about": "“Deazapurine nucleoside, formulations thereof, and use thereof in therapy” (THE WELLCOME FOUNDATION LIMITED, priority 1980, dated 1981)",
  "key": {"[1]": {"test_system": "carrageenan pleurisy (3 hr. exudate volume)", "test": "Carrageenan Pleurisy Assay (CPA), local (intra-pleural) anti-inflammatory activity", "type": "in vivo", "details": "read-out: ED50 3 hr. vol. local (intra-pleural)", "description": "Following the procedure described by Vinegar et al. /Eur. J. Rheum. […] There were 5 animals in each drug-treated group and the control group."}, "adjuvant arthritis": {"test_system": "adjuvant arthritis", "test": "Adjuvant arthritis, developing and established, arthritic joint scores", "type": "in vivo", "details": "Rattus norvegicus, rats; for ED25: feed or water, 1008 h, drug in diet from day 21 to 42; for ED50: po, 384 h, drug in diet from day 1 to day 16", "method": "The effect of 3-deazaadenosine in rats againt both developing and established adjuvant arthritis was determined by the method described by R. Vinegar et al. Journal of Immunopharmacology. 1, 483, (I979). The scoring procedure of A.L.F. Currey and M. Ziff, J. Exp. Med., 121, 185 (1968) was used to assess the arthritic joint scores of rats. There were 5 animals in each drug-treated group. For developing adjuvant arthritis the drugs were administered in the diet from day 1 to day 16. For established adjuvant arthritis the drugs were administered from day 21 to 42."}, "Half life": {"test": "Half life", "details": "in vivo"}, "Therapeutic index": {"test": "Therapeutic index", "details": "in vivo"}, "Antipyretic activity": {"test": "Antipyretic activity", "details": "in vivo"}, "Analgesic activity": {"test": "Analgesic activity", "type": "in vivo", "details": "per se"}, "lipoxygenase": {"test_system": "lipoxygenase", "test": "Prostaglandin metabolism in vitro, lipoxygenase pathway", "type": "biochemical"}, "liver": {"test_system": "liver", "test": "Liver damage in animal models", "type": "in vivo", "details": "animal models used"}, "Water solubility": {"test": "Water solubility", "type": "physicochemical"}, "[2]": {"details": "earlier disclosed activity (US Patent No. 4 148 888); cited from earlier work"}, "cyclooxygenase": {"test_system": "cyclooxygenase", "test": "Prostaglandin metabolism in vitro, cyclooxygenase pathway", "type": "biochemical"}, "immune response": {"test_system": "immune response", "details": "earlier disclosed activity (UK Patent Application No. 40447/78); cited from earlier work"}, "[3]": {"test_system": "carrageenan pleurisy (3 hour pleural exudate volume)", "test": "Carrageenan Pleurisy Assay (CPA), acute anti-inflammatory activity, oral dosing", "type": "in vivo", "details": "for ED50: po, dose reducing the 3 hour exudate volume by 50%, p.o., 5 animals per group, read-out: ED50 3 hr. vol. p.o.", "method": "Following the procedure previously described by Vinegar et al. in Proc. Soc. Exp. Biol. Med., 143, 711, (1973) as recently modified /Vinegar et al., Eur. J. Rheum. Inflamm., 1, 204 (1978)/ the acute anti-inflammatory activity of 3-deazaadenosine was compared with that of known anti-inflammatory drugs. The average 3 hour exudate volume for each drug treated group was determined and the % inhibition relative to solvent-fed control animals calculated, the ED 50 (mg/kg body weight) being the dose required to reduce the 3 hour exudate volume by 50%. There were 5 animals in each drug-treated group and the control group.\nBy means of the Carrageenan Pleurisy Assay of Example 1 the duration of action of the tests compounds after a single oral pretreating dose was determined. For 3-deazaadenosine the effect lasted for 14.9 hours at 6 mg/kg (p.o.) whilst for aspirin (150 mg/kg p.o.) and acetaminophen (220 mg/kg p.o.) the effect lasted for […] and 2 hours respectively. This value represents the time (hours) of drug administration prior to the injection of carrageenan in which the inhibition of the 3 hour pleural exudate volume declined to 40%."}},
  "note": "Read-outs that look alike come from different tables or passages of the source.",
  "data": [
    {"molecule": "Nc1nccc2c1ncn2[C@@H]1O[C@H](CO)[C@@H](O)[C@H]1O", "note": "[3-Deazaadenosine, 4-amino-1-β-D-ribofuranosyl-1H-imidazo-[4,5-c]-pyridine]", "values": [
      {"measurement": "ED50", "setting": "[1]; local (intra-pleural) administration, 5 animals per group", "result": 0.05, "unit": "mg/kg"},
      {"measurement": "ED25", "setting": "adjuvant arthritis", "result": "~18", "unit": "mg/kg/day"},
      {"measurement": "ED50", "setting": "adjuvant arthritis", "result": "8 ± 2.8", "unit": "mg/kg"},
      {"measurement": "half life", "setting": "Half life", "result": "short half life"},
      {"measurement": "therapeutic index", "setting": "Therapeutic index", "result": "high therapeutic index"},
      {"measurement": "antipyretic activity", "setting": "Antipyretic activity", "result": "not antipyretic"},
      {"measurement": "analgesic activity", "setting": "Analgesic activity", "result": "no analgesic activity"},
      {"measurement": "inhibition of prostaglandin metabolism, lipoxygenase pathway", "setting": "lipoxygenase", "result": "does not inhibit"},
      {"measurement": "liver damage", "setting": "liver", "result": "does not cause liver damage"},
      {"measurement": "water solubility", "setting": "Water solubility", "result": "high water solubility"},
      {"measurement": "dose required for antiviral activity", "setting": "[2]", "result": "100-200 mg/kg per day"},
      {"measurement": "inhibition of prostaglandin metabolism, cyclooxygenase pathway", "setting": "cyclooxygenase", "result": "does not inhibit"},
      {"measurement": "dose required for immunesuppression", "setting": "immune response", "result": "more than 30 mg/kg"},
      {"measurement": "duration of action", "setting": "[3]; general statement in the description, no dose given", "result": "about 15 hours"},
      {"measurement": "ED50", "setting": "[3]", "result": "2.8 ± 0.65", "unit": "mg/kg"},
      {"measurement": "duration of action", "setting": "[3]; single oral pretreating dose 6 mg/kg (p.o.), time before carrageenan at which inhibition of 3 hour pleural exudate volume declined to 40%", "result": 14.9, "unit": "h"}
    ]},
    {"molecule": "CC(=O)Oc1ccccc1C(=O)O", "note": "[Aspirin]", "values": [
      {"measurement": "ED50", "setting": "[1]", "result": 0.04, "unit": "mg/kg"},
      {"measurement": "ED25", "setting": "adjuvant arthritis", "result": 150, "unit": "mg/kg/day"},
      {"measurement": "ED50", "setting": "adjuvant arthritis", "result": "150 ± 53.1", "unit": "mg/kg"},
      {"measurement": "ED50", "setting": "[3]", "result": "28 ± 3.2", "unit": "mg/kg"},
      {"measurement": "duration of action", "setting": "[3]; single oral pretreating dose 150 mg/kg p.o., time before carrageenan at which inhibition of 3 hour pleural exudate volume declined to 40%", "result": 35, "unit": "h"}
    ]},
    {"molecule": "C[C@]12CCC(=O)C=C1CC[C@@H]1[C@@H]2[C@@H](O)C[C@@]2(C)[C@H]1CC[C@]2(O)C(=O)CO", "note": "[Hydrocortisone]", "values": [
      {"measurement": "ED50", "setting": "[1]", "result": 0.1, "unit": "mg/kg"},
      {"measurement": "ED50", "setting": "[3]", "result": "14 ± 10.2", "unit": "mg/kg"}
    ]},
    {"molecule": "C[C@]12C=CC(=O)C=C1CC[C@@H]1[C@@H]2[C@@H](O)C[C@@]2(C)[C@H]1CC[C@]2(O)C(=O)CO", "note": "[Prednisolone]", "values": [
      {"measurement": "ED25", "setting": "adjuvant arthritis", "result": 0.2, "unit": "mg/kg/day"},
      {"measurement": "ED50", "setting": "adjuvant arthritis", "result": "1 ± 0.7", "unit": "mg/kg"},
      {"measurement": "ED50", "setting": "[3]", "result": "3 ± 0.5", "unit": "mg/kg"}
    ]},
    {"molecule": "CC(=O)Nc1ccc(O)cc1", "note": "[acetaminophen]", "values": [
      {"measurement": "duration of action", "setting": "[3]; single oral pretreating dose 220 mg/kg p.o., time before carrageenan at which inhibition of 3 hour pleural exudate volume declined to 40%", "result": 2, "unit": "h"}
    ]}
  ]
}
